Measured values: patent publication US20260007684A1, “AMIDE DERIVATIVES FOR INHIBITING NLRP3 AND USES THEREOF” (Ventus Therapeutics U.S., Inc., priority 2023, published 2026)

The compounds below were run against human NLRP3 (Homo sapiens (Human), UniProt Q96P20) (assay: Scintillation Proximity (SPA) NLRP3 Assay: displacement of 3H-MCC950). Conditions: SPA IC50, displacement of 3H-MCC950.
Format: binding

Sequence of human NLRP3 (Q96P20 whole entry): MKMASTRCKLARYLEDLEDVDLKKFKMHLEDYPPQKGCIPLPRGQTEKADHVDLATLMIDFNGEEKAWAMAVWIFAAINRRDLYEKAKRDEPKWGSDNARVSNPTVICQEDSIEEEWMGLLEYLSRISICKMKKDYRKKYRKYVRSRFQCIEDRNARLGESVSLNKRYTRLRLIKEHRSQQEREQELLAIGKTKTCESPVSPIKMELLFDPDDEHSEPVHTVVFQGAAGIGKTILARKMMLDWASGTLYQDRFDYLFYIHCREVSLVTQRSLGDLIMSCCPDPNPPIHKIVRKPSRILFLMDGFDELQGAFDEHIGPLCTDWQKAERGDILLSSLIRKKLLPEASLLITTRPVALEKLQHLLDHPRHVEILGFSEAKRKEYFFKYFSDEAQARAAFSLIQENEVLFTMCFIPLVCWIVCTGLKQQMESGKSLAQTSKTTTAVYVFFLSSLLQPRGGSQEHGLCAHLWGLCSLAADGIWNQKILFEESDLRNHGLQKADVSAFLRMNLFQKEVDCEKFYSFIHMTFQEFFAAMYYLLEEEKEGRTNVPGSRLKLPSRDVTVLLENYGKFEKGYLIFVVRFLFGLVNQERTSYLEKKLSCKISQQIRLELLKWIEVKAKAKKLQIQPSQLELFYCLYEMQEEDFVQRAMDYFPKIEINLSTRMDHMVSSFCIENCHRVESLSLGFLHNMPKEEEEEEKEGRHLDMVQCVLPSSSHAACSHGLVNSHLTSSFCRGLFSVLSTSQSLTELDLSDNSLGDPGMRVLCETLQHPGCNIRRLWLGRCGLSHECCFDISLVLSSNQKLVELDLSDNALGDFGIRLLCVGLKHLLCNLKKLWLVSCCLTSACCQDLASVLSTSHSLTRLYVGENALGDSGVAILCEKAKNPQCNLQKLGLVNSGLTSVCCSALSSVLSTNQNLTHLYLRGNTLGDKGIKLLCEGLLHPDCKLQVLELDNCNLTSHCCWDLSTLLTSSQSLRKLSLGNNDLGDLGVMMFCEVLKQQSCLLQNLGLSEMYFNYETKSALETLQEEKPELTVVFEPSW

Structure (SMILES)	IC50
C[C@@H]1C[C@@H]2CC[C@H]([C@H](NC(=O)C3(c4ccc(C(F)(F)F)cc4)CC3)C1)N2c1nnn[nH]1 [104E*, N-((1R,2R,4S,6S)-4-methyl-9-(1H-tetrazol-5-yl)-9-azabicyclo[4.2.1]nonan-2-yl)-1-(4-(trifluoromethyl)phenyl)cyclopropane-1-carboxamide]	10 to 50 µM
O=C(N[C@@H]1CCC[C@H]2CC[C@@H]1N2c1nnn[nH]1)C1(c2ccc(C(F)(F)F)cc2O)CC1 [88C*, N-((1S,2R,6S)-9-(1H-tetrazol-5-yl)-9-azabicyclo[4.2.1]nonan-2-yl)-1-(2-hydroxy-4-(trifluoromethyl)phenyl)cyclopropane-1-carboxamide]	50 to 100 µM

Same assay, conditions: displacement of 3H-MCC950; read-out: SPA IC50

Structure (SMILES)	IC50
C[C@H]1CCN(c2nnn[nH]2)C[C@H](NC(=O)C2(c3ccc(Cl)c(F)c3F)CC2)C1 (single isomer, unassigned) [4C*, 1-(4-chloro-2,3-difluorophenyl)-N-(5-methyl-1-(1H-tetrazol-5-yl)azepan-3-yl)cyclopropane-1-carboxamide]	50 to 100 µM
C[C@H]1C[C@@H](NC(=O)C2(c3ccc(OC(F)F)cc3F)CC2)[C@@H]2CC[C@H]1N2c1nnn[nH]1 (stereo in doubt) [101C*, 1-(4-(difluoromethoxy)-2-fluorophenyl)-N-(4-methyl-8-(1H-tetrazol-5-yl)-8-azabicyclo[3.2.1]octan-2-yl)cyclopropane-1-carboxamide]	> 100 µM
C[C@H]1CCN(c2nnn[nH]2)C[C@@H](NC(=O)C2(c3cnc(Cl)cc3O)CC2)C1 (single isomer, unassigned) [99D*]	10 to 50 µM
Cc1ccc(C2(C(=O)N[C@H]3C[C@@H](C)[C@@H]4CC[C@H]3N4c3nnn[nH]3)CC2)cc1 [87B*, N-((1R,2S,4R,5S)-4-methy1-8-(1H-tetrazol-5-yl)-8-azabicyclo[3.2.1]octan-2-yl)-1-(p-tolyl)cyclopropane-1-carboxamide]	10 to 50 µM
C[C@H]1CCN(c2nnn[nH]2)C[C@H](NC(=O)C2(c3ccc(OC(F)F)cc3)CC2)C1 (single isomer, unassigned) [58C*]	> 100 µM
C[C@@H]1C[C@H](NC(=O)C2(c3ccc(OC(F)(F)F)cc3)CC2)[C@H]2CC[C@@H]1N2c1nnn[nH]1 [82B*, N-((1R,2S,4R,5S)-4-methyl-8-(1H-tetrazol-5-yl)-8-azabicyclo[3.2.1]octan-2-yl)-1-(4-(trifluoromethoxy)phenyl)cyclopropane-1-carboxamide]	> 100 µM
Cc1ccc(C2(C(=O)N[C@H]3C[C@@H](C)CCN(c4nnn[nH]4)C3)CC2)cc1 (single isomer, unassigned) [71D*]	10 to 50 µM
Cc1ccc(C2(C(=O)N[C@H]3C[C@@H](C)CCN(c4nnn[nH]4)C3)CC2)c(O)c1F (single isomer, unassigned) [74D*]	1 to 10 µM
C[C@@H]1CC[C@H](NC(=O)C2(c3ccc(C4CC4)cc3O)CC2)CN(c2nnn[nH]2)C1 (single isomer, unassigned) [91D*]	1 to 10 µM
C[C@H]1CCN(c2nnn[nH]2)C[C@@H](NC(=O)C2(c3ccc(OC(F)(F)F)cc3F)CC2)C1 (single isomer, unassigned) [64D*]	1 to 10 µM
O=C(N[C@H]1CC[C@@H]2CC[C@H]1N2c1nnn[nH]1)C1(c2ccc(OC(F)F)cc2O)CC1 [77B*, N-((1R,2S,5R)-8-(1H-tetrazol-5-yl)-8-azabicyclo[3.2.1]octan-2-yl)-1-(4-(difluoromethoxy)-2-hydroxyphenyl)cyclopropane-1-carboxamide]	10 to 50 µM
C[C@H]1C[C@H](NC(=O)C2(c3ccc(OC(F)(F)F)cc3)CC2)[C@@H]2CC[C@H]1N2c1nnn[nH]1 [82D*, N-((1S,2S,4S,5R)-4-methy1-8-(1H-tetrazol-5-yl)-8-azabicyclo[3.2.1]octan-2-yl)-1-(4-(trifluoromethoxy)phenyl)cyclopropane-1-carboxamide]	> 100 µM
C[C@@H]1CCN(c2nnn[nH]2)C[C@@H](NC(=O)C2(c3ccc(Br)cc3)CC2)C1 (single isomer, unassigned) [59B*]	1 to 10 µM
C[C@H]1C[C@@H](NC(=O)C2(c3cnc(C(F)(F)F)cc3O)CC2)CN(c2nnn[nH]2)C1 [Compound 26A, 1-(4-hydroxy-6-(trifluoromethyl)pyridin-3-yl)-N-((3R,5S)-5-methyl-1-(1H-tetrazol-5-yl)piperidin-3-yl)cyclopropane-1-carboxamide]	1 to 10 µM
C[C@@H]1CCN(c2nnn[nH]2)C[C@@H](NC(=O)C2(c3ccc(SC(F)(F)F)cc3)CC2)C1 (single isomer, unassigned) [69B*]	10 to 50 µM
Cc1ccc(C2(C(=O)N[C@H]3C[C@H](C)CCN(c4nnn[nH]4)C3)CC2)c(O)c1F (single isomer, unassigned) [22B*, 1-(3-fluoro-2-hydroxy-4-methylphenyl)-N-(5-methyl-1-(1H-tetrazol-5-yl)azepan-3-yl)cyclopropane-1-carboxamide]	1 to 10 µM
C[C@@H]1CCN(c2nnn[nH]2)CC(NC(=O)C2(c3ccc(OC(F)F)cc3)CC2)C1 (stereo in doubt) [58B*, 1-(4-(difluoromethoxy)phenyl)-N-((3S,5R)-5-methyl-1-(1H-tetrazol-5-yl)azepan-3-yl)cyclopropane-1-carboxamide]	1 to 10 µM
C[C@H]1CCN(c2nnn[nH]2)C[C@@H](NC(=O)C2(c3ccc(C4CCC4)cc3)CC2)C1 (single isomer, unassigned) [8D*, 1-(4-cyclobutylphenyl)-N-(5-methyl-1-(1H-tetrazol-5-yl)azepan-3-yl)cyclopropane-1-carboxamide]	10 to 50 µM

Structure (SMILES)	IC50
O=C(N[C@H]1C[C@H](C(F)(F)F)[C@H]2CC[C@@H]1N2c1nnn[nH]1)C1(c2ccc(Cl)cc2)CC1 (single isomer, unassigned) [103D*]	10 to 50 µM
C[C@H]1CCN(c2nnn[nH]2)C[C@H](NC(=O)C2(c3ccc(C4CCC4)cc3)CC2)C1 (single isomer, unassigned) [8C*, 1-(4-cyclobutylphenyl)-N-(5-methyl-1-(1H-tetrazol-5-yl)azepan-3-yl)cyclopropane-1-carboxamide]	10 to 50 µM
Cc1ccc(C2(C(=O)N[C@@H]3C[C@H](C)[C@H]4CC[C@@H]3N4c3nnn[nH]3)CC2)cc1 [87C*, N-((1S,2R,4S,5R)-4-methy1-8-(1H-tetrazol-5-yl)-8-azabicyclo[3.2.1]octan-2-yl)-1-(p-tolyl)cyclopropane-1-carboxamide]	> 100 µM
O=C(N[C@H]1CN(c2nnn[nH]2)CC[C@@H]1F)C1(c2ccc(Cl)cc2)CC1 [Compound 50C, 1-(4-chlorophenyl)-N-[(3S,4S)-4-fluoro-1-(1H-tetrazol-5-yl)-3-piperidyl]cyclopropanecarboxamide]	10 to 50 µM
CC1(C)C[C@H](NC(=O)C2(c3ccc(Cl)cc3O)CC2)CN(c2nnn[nH]2)C1 (single isomer, unassigned) [42B*]	10 to 50 µM
C[C@H]1C[C@H](NC(=O)C2(c3ccc(OC(F)F)cc3)CC2)[C@@H]2CC[C@H]1N2c1nnn[nH]1 (single isomer, unassigned) [35D*]	10 to 50 µM
C[C@@H]1CCN(c2nnn[nH]2)C[C@@H](NC(=O)C2(c3ccc(Cl)cc3Cl)CC2)C1 (single isomer, unassigned) [55B*]	10 to 50 µM
C[C@@H]1[C@H](NC(=O)C2(c3ccc(Cl)cc3)CC2)CCCN1c1nnn[nH]1 [Compound 40A, 1-(4-chlorophenyl)-N-[(2R,3R)-2-methyl-1-(1H-tetrazol-5-yl)-3-piperidyl]cyclopropanecarboxamide]	> 100 µM
O=C(N[C@@H]1CN(c2nnn[nH]2)CCC(F)(F)C1)C1(c2ccc(Cl)cc2)CC1 (single isomer, unassigned) [53B*]	50 to 100 µM
C[C@H]1CCN(c2nnn[nH]2)C[C@H](NC(=O)C2(c3ccc(C(F)F)cc3)CC2)C1 (single isomer, unassigned) [5C*, 1-(4-(difluoromethyl)phenyl)-N-(5-methyl-1-(1H-tetrazol-5-yl)azepan-3-yl)cyclopropane-1-carboxamide]	> 100 µM
C[C@@H]1C[C@H](NC(=O)C2(c3ccc(C4CC4)cc3)CC2)[C@H]2CC[C@@H]1N2c1nnn[nH]1 [81B*, 1-(4-cyclopropylphenyl)-N-((1R,2S,4R,5S)-4-methyl-8-(1H-tetrazol-5-yl)-8-azabicyclo[3.2.1]octan-2-yl)cyclopropane-1-carboxamide]	50 to 100 µM
C[C@@H]1CCN(c2nnn[nH]2)C[C@@H](NC(=O)C2(c3ccc(Cl)c(F)c3F)CC2)C1 (single isomer, unassigned) [4B*, 1-(4-chloro-2,3-difluorophenyl)-N-(5-methyl-1-(1H-tetrazol-5-yl)azepan-3-yl)cyclopropane-1-carboxamide]	10 to 50 µM
Cc1cc(C2(C(=O)N[C@H]3C[C@H](C)CCN(c4nnn[nH]4)C3)CC2)ccc1C(F)(F)F (single isomer, unassigned) [6B*, N-(5-methyl-1-(1H-tetrazol-5-yl)azepan-3-yl)-1-(3-methyl-4-(trifluoromethyl)phenyl)cyclopropane-1-carboxamide]	50 to 100 µM
C[C@@H]1CCN(c2nnn[nH]2)C[C@@H](NC(=O)C2(c3ccc(C(F)(F)F)cc3)CC2)C1 (single isomer, unassigned) [61C*]	50 to 100 µM
C[C@@H]1C[C@H](NC(=O)C2(c3ccc(C(F)F)cc3)CC2)[C@H]2CC[C@@H]1N2c1nnn[nH]1 [86B*, 1-(4-(difluoromethyl)phenyl)-N-((1R,2S,4R,5S)-4-methyl-8-(1H-tetrazol-5-yl)-8-azabicyclo[3.2.1]octan-2-yl)cyclopropane-1-carboxamide]	10 to 50 µM
O=C(N[C@H]1CC[C@@H]2CC[C@H]1N2c1nnn[nH]1)C1(c2ccc(C(F)(F)F)cc2O)CC1 (single isomer, unassigned) [34B*]	1 to 10 µM
C[C@H]1CCN(c2nnn[nH]2)C[C@@H](NC(=O)C2(c3ccc(OC(F)F)c(F)c3)CC2)C1 (single isomer, unassigned) [73D*]	1 to 10 µM
C[C@H]1CCN(c2nnn[nH]2)C[C@H](NC(=O)C2(c3ccc(C4CC4)c(F)c3O)CC2)C1 (single isomer, unassigned) [32C*, 1-(4-cyclopropyl-3-fluoro-2-hydroxyphenyl)-N-(5-methyl-1-(1H-tetrazol-5-yl)azepan-3-yl)cyclopropane-1-carboxamide]	50 to 100 µM
